In ChEMBL document CHEMBL1149570, “Thiotetrazole alkynylacetanilides as potent and bioavailable non-nucleoside inhibitors of the HIV-1 wild type and K103N/Y181C double mutant reverse transcriptases” (Bioorg Med Chem Lett, 2007) one finds bioavailability, Cmax and AUC data, which are given here for three compounds.

Holding throughout (type): ADME, organism-based
Series [1] in a line: Oral bioavailability in rat at 5 mg/kg. To be noted: in vivo.
The nature of series [2]: Cmax in rat at 5 mg/kg, po. The arrangement: dose 5 mg/kg, route oral. To be noted: in vivo.
Series [3] in a line: AUC in rat at 5 mg/kg, po. To be noted: plasma. The arrangement: dose 5 mg/kg, route oral.

For the compound `CC(C)(C#Cc1ccc(NC(=O)CSc2nnnn2-c2ccc(C3CC3)cc2Cl)c(Cl)c1)NC(=O)CN`, in series [1], the bioavailability (in general, dose-corrected exposure relative to a reference, in per cent) was found to be 21%. Further, the Cmax (commonly the peak of the concentration-time curve) in series [2] is 280 nM. Also, the AUC – broadly, concentration integrated over time – in series [3] turned out to be 1 µM·h.
As to `CC(C)(C#Cc1ccc(NC(=O)CSc2nnnn2-c2ccc(C3CC3)cc2Cl)c(Cl)c1)C(=O)O`, in series [1], the bioavailability turned out to be 66%. This compound had a peak concentration (Cmax) in series [2] of 5000 nM. For the same compound, the AUC in series [3] amounted to 9.5 µM·h.
The corresponding values for `CC(C)(C#Cc1ccc(NC(=O)CSc2nnnn2-c2ccc(C3CC3)cc2Cl)c(Cl)c1)CNCC(=O)O` are 29%, 260 nM and 0.84 µM·h.
